Source: patent US11981658B2, “Substituted aminopyridine compounds as EGFR inhibitors” (YUHAN CORPORATION, priority 2021, dated 2024)
Where two headings read alike, the source gives them in different places.

Columns and labels:
EGFR Del19/T790M/C797S = EGFR Del19/T790M/C797S (Homo sapiens, UniProt P00533, C797S/DEL746-750/T790M); assay: Biochemical EGFR kinase inhibition assay (Lance Ultra TR-FRET), triple mutant del19/T790M/C797S
How it was run: (§1)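 Enzyme reactions lasted 1 hour at room temperature with test compounds between 0.003 and 10 μM, followed by 10 mM EDTA quench.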

EGFR L858R/T790M/C797S = EGFR L858R/T790M/C797S (Homo sapiens, UniProt P00533, C797S/L858R/T790M); assay: Biochemical EGFR kinase inhibition assay (Lance Ultra TR-FRET), triple mutant L858R/T790M/C797S
How it was run: as §1

EGFR Del19/C797S = EGFR Del19/C797S (Homo sapiens, UniProt P00533, C797S/DEL746-750); assay: Biochemical EGFR kinase inhibition assay (Lance Ultra TR-FRET), double mutant del19/C797S
How it was run: as §1

EGFR L858R/C797S = EGFR L858R/C797S (Homo sapiens, UniProt P00533, C797S/L858R); assay: Biochemical EGFR kinase inhibition assay (Lance Ultra TR-FRET), double mutant L858R/C797S
How it was run: as §1

EGFR wildtype (WT) = EGFR wildtype (WT) (Homo sapiens, UniProt P00533); assay: Biochemical EGFR kinase inhibition assay (Lance Ultra TR-FRET), wildtype
How it was run: as §1

[1] = IC50 Del19/T790M/C797S (nM), 100 μM ATP
[2] = IC50 L858R/T790M/C797S (nM), 100 μM ATP
[3] = IC50 Del19/C797S (nM), 100 μM ATP
[4] = IC50 L858R/C797S (nM), 100 μM ATP
[5] = Km ATP, read-out: IC50 Del19/T790M/C797S (nM) Km ATP
[6] = Km ATP, read-out: IC50 L858R/T790M/C797S (nM) Km ATP
[7] = Km ATP, read-out: IC50 Del19/C797S (nM) Km ATP
[8] = Km ATP, read-out: IC50 L858R/C797S (nM) Km ATP
[9] = Km ATP, read-out: IC50 WT (nM) Km ATP
[10] = ATP at Km, read-out: IC50 Del19/T790M/C797S (nM), Km ATP
[11] = ATP at Km, read-out: IC50 L858R/T790M/C797S (nM), Km ATP
[12] = ATP at Km, read-out: IC50 Del19/C797S (nM), Km ATP
[13] = ATP at Km, read-out: IC50 L858R/C797S (nM), Km ATP
[14] = ATP at Km, read-out: IC50 WT (nM), Km ATP

EGFR L858R/T790M/C797S, sequence (P00533 25-1210 T790M/C797S/L858R): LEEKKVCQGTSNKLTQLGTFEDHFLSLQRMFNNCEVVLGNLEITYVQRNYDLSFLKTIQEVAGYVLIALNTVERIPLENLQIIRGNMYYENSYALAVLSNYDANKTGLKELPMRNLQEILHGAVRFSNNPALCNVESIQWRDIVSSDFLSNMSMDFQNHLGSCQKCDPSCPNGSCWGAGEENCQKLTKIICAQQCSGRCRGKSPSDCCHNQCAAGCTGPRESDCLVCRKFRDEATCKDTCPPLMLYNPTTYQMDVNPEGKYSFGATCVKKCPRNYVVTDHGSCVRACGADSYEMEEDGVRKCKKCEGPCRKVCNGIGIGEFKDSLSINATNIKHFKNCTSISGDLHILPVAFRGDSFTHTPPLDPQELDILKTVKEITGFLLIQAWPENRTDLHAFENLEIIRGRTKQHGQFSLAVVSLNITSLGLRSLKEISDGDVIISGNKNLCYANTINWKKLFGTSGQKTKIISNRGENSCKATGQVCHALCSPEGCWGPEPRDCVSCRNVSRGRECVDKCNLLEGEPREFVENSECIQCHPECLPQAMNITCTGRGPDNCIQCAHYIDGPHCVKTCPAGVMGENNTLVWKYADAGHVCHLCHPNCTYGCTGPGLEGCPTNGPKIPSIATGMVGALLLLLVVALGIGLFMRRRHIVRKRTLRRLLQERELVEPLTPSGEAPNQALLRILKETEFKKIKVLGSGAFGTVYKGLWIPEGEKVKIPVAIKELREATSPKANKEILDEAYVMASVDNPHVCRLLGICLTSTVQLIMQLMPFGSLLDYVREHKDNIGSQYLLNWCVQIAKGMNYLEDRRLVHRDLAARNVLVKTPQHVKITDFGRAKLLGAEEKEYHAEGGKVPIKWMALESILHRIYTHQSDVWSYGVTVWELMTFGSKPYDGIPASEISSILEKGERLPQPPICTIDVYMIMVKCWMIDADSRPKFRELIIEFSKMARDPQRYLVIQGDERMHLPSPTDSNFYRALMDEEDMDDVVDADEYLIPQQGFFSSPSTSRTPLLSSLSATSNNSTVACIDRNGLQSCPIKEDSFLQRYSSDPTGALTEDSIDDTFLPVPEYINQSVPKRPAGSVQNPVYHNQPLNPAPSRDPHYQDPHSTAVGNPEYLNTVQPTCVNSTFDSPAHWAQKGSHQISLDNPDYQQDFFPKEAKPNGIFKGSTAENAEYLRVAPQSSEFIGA
EGFR Del19/C797S, sequence (P00533 with tags, fused parts or gaps DEL746-750/C797S): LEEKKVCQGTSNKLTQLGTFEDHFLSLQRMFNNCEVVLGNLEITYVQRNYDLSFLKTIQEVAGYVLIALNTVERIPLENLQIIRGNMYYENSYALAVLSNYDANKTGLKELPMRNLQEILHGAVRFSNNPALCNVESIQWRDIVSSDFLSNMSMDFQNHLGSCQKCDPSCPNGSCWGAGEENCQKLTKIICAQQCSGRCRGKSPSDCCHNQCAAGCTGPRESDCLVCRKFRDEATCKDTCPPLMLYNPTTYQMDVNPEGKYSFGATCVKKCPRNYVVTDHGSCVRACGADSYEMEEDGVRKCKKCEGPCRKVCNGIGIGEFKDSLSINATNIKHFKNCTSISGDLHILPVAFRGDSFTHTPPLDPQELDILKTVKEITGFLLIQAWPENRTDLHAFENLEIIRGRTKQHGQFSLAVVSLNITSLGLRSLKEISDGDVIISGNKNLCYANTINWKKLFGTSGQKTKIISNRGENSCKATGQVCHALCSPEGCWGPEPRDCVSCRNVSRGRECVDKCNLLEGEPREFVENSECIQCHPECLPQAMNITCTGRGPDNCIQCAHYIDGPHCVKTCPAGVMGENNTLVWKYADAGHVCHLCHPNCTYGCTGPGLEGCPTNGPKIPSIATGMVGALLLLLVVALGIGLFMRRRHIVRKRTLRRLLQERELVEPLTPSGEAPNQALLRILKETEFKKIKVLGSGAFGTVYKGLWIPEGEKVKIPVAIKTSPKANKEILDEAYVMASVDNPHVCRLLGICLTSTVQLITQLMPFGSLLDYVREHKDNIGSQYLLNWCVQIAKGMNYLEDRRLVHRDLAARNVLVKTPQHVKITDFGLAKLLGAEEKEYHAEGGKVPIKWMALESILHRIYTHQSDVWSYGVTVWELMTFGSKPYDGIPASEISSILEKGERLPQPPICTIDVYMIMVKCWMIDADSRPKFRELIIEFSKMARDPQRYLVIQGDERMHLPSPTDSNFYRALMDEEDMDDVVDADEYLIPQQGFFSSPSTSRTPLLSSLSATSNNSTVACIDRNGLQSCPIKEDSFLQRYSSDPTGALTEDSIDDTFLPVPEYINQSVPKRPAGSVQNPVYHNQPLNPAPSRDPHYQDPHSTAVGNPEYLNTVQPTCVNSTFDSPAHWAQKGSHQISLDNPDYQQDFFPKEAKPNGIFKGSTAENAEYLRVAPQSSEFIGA
EGFR wildtype (WT), sequence (P00533 25-1210): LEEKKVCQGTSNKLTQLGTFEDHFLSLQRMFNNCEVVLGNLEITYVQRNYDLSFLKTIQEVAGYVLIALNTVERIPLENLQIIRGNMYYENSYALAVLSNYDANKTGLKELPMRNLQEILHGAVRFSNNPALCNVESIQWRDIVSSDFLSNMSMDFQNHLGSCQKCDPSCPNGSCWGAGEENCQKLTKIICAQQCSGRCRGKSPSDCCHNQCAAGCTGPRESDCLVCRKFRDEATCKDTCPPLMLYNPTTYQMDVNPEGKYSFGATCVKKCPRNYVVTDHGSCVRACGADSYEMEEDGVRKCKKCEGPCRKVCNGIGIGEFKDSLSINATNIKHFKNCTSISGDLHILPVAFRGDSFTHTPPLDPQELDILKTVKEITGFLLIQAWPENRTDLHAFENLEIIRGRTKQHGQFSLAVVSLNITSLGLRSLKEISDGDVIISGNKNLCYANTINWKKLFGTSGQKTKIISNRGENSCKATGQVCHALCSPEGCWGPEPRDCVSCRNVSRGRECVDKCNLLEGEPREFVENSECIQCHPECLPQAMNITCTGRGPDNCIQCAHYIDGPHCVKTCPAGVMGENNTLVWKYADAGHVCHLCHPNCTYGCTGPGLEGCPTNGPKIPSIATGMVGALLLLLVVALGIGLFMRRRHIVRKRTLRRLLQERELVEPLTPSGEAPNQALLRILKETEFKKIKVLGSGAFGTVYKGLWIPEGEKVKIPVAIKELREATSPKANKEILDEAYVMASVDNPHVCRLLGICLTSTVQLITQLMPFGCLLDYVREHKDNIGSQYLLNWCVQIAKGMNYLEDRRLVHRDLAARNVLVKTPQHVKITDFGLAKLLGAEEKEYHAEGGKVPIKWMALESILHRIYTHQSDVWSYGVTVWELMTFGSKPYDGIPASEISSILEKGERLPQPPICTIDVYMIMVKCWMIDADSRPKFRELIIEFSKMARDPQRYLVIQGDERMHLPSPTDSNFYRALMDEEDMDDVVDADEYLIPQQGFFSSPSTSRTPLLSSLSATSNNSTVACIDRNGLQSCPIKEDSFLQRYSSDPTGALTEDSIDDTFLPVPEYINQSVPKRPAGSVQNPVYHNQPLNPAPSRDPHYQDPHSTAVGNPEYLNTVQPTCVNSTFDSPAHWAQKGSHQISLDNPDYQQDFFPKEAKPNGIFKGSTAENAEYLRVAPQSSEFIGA
EGFR L858R/C797S, sequence (P00533 25-1210 C797S/L858R): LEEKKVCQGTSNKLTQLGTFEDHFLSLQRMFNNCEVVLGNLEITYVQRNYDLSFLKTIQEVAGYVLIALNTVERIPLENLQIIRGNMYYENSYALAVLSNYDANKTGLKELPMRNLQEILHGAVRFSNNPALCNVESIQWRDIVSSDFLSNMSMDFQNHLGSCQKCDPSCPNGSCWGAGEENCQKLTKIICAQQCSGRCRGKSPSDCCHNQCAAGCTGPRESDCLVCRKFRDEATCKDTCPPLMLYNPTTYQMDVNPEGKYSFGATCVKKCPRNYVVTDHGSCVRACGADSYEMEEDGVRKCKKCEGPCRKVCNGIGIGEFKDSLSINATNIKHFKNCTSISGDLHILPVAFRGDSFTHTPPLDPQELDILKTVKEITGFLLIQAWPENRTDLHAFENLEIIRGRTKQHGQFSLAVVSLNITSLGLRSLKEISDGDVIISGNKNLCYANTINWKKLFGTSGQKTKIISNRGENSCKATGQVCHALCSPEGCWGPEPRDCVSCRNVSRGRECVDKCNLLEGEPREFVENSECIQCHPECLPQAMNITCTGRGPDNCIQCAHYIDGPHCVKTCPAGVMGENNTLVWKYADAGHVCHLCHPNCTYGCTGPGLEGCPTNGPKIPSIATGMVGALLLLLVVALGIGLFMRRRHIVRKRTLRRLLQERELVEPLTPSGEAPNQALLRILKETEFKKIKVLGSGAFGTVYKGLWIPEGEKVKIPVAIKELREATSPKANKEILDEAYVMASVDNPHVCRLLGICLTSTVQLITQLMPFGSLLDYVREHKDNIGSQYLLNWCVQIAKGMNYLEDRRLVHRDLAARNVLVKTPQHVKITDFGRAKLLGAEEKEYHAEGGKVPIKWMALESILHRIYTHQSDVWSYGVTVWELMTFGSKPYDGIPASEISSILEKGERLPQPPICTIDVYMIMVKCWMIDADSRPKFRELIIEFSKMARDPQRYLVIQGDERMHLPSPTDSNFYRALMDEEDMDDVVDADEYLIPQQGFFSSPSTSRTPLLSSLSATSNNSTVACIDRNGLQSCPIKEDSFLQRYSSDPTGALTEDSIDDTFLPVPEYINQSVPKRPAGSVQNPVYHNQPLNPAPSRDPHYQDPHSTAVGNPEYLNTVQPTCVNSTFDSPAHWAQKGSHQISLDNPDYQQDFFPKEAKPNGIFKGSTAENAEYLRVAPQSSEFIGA

Compound | IC50 (EGFR Del19/T790M/C797S; [1]) | IC50 (EGFR L858R/T790M/C797S; [2]) | IC50 (EGFR Del19/C797S; [3]) | IC50 (EGFR L858R/C797S; [4]) | IC50 (EGFR wildtype (WT); IC50 WT (nM), 100 μM ATP) | IC50 (EGFR Del19/T790M/C797S; [10]) | IC50 (EGFR L858R/T790M/C797S; [11]) | IC50 (EGFR Del19/C797S; [12]) | IC50 (EGFR L858R/C797S; [13]) | IC50 (EGFR wildtype (WT); [14]) | other results
O=S(=O)(C1CC1)n1cc(-c2nccc(Nc3cc(N4CCC(F)(CO)CC4)c(C#Cc4cnn(C(F)(F)F)c4)cn3)n2)cn1 [Example 338, (1-(2-((2-(1-(Cyclopropylsulfonyl)-1H-pyrazol-4-yl)pyrimidin-4-yl)amino)-5-((1-(trifluoromethyl)-1H-pyrazol-4-yl)ethynyl)pyridin-4-yl)-4-fluoropiperidin-4-yl)methanol] | 0.4 nM | 0.5 nM | 17.1 nM | 9580 nM | > 10000 nM | – | – | – | – | – | IC50 (EGFR Del19/T790M/C797S; Km ATP, read-out: IC50 Del19/T790M/C797S (nM), Km ATP): 0.3 nM; IC50 (EGFR L858R/T790M/C797S; Km ATP, read-out: IC50 L858R/T790M/C797S (nM), Km ATP): 0.2 nM; IC50 (EGFR Del19/C797S; Km ATP, read-out: IC50 Del19/C797S (nM), Km ATP): 10.8 nM; IC50 (EGFR L858R/C797S; Km ATP, read-out: IC50 L858R/C797S (nM), Km ATP): 42.8 nM; IC50 (EGFR wildtype (WT); Km ATP, read-out: IC50 WT (nM), Km ATP): 149 nM
Cn1cc(C#Cc2cnc(Nc3ccnc(-c4cnn(S(=O)(=O)C5CC5)c4)n3)cc2NC2CCCCC2)cn1 [Example 2, N^4-Cyclohexyl-N^2-(2-(1-(cyclopropylsulfonyl)-1H-pyrazol-4-yl)pyrimidin-4-yl)-5-((1-methyl-1H-pyrazol-4-yl)ethynyl)pyridine-2,4-diamine] | – | – | – | – | – | – | – | – | – | – | IC50 (EGFR Del19/T790M/C797S; [5]): 5.7 nM; IC50 (EGFR L858R/T790M/C797S; [6]): 11.2 nM; IC50 (EGFR Del19/C797S; [7]): 112 nM; IC50 (EGFR L858R/C797S; [8]): 143 nM; IC50 (EGFR wildtype (WT); [9]): 881 nM
CC1(CO)CCN(c2cc(Nc3ccnc(-c4cnn(S(=O)(=O)C5CC5)c4)n3)ncc2C#Cc2cnn(CC3CCOC3)c2)CC1 (stereo not drawn) [Example 243, (1-(2-((2-(1-(Cyclopropylsulfonyl)-1H-pyrazol-4-yl)pyrimidin-4-yl)amino)-5-((1-((tetrahydrofuran-3-yl)methyl)-1H-pyrazol-4-yl)ethynyl)pyridin-4-yl)-4-methylpiperidin-4-yl)methanol] | 1.4 nM | 1.8 nM | 0.7 nM | 14.7 nM | 2170 nM | 0.9 nM | 0.4 nM | 0.8 nM | 0.9 nM | 4.7 nM | –
CC1(CO)CCN(c2cc(Nc3ccnc(-c4cnn(S(=O)(=O)C5CC5)c4)n3)ncc2C#Cc2cnn(CC3COCCO3)c2)CC1 (stereo not drawn) [Example 242, (1-(5-((1-((1,4-Dioxan-2-yl)methyl)-1H-pyrazol-4-yl)ethynyl)-2-((2-(1-(cyclopropylsulfonyl)-1H-pyrazol-4-yl)pyrimidin-4-yl)amino)pyridin-4-yl)-4-methylpiperidin-4-yl)methanol] | 1 nM | 1.6 nM | 0.6 nM | 13.8 nM | 2610 nM | 0.8 nM | 0.4 nM | 0.7 nM | 1 nM | 4.6 nM | –
CN1CCC2(CC1)CCN(c1cc(Nc3ccnc(-c4cnn(S(=O)(=O)C5CC5)c4)n3)ncc1C#Cc1cnn(C)c1)CC2 [Example 318, 2-(1-(Cyclopropylsulfonyl)-1H-pyrazol-4-yl)-N-(5-((1-methyl-1H-pyrazol-4-yl)ethynyl)-4-(9-methyl-3,9-diazaspiro[5.5]undecan-3-yl)pyridin-2-yl)pyrimidin-4-amine] | 0.3 nM | 0.4 nM | 4.2 nM | 18.4 nM | 5990 nM | – | – | – | – | – | –
Cn1cnc(C#Cc2cnc(Nc3ccnc(-c4cnn(S(=O)(=O)C5CC5)c4)n3)cc2N[C@H]2CC[C@@H](O)CC2)c1 [Example 216, (1s,4s)-4-((2-((2-(1-(Cyclopropylsulfonyl)-1H-pyrazol-4-yl)pyrimidin-4-yl)amino)-5-((1-methyl-1H-imidazol-4-yl)ethynyl)pyridin-4-yl)amino)cyclohexan-1-ol] | – | – | – | – | – | – | – | – | – | – | IC50 (EGFR Del19/T790M/C797S; read-out: IC50 Del19/T790M/C797S (nM), 100 μM ATP): 0.7 nM; IC50 (EGFR L858R/T790M/C797S; read-out: IC50 L858R/T790M/C797S (nM), 100 μM ATP): 0.8 nM; IC50 (EGFR Del19/C797S; read-out: IC50 Del19/C797S (nM), 100 μM ATP): 4.9 nM; IC50 (EGFR L858R/C797S; read-out: IC50 L858R/C797S (nM), 100 μM ATP): 28 nM; IC50 (EGFR wildtype (WT); read-out: IC50 WT (nM), 100 μM ATP): > 10000 nM
CC1(CO)CCN(c2cc(Nc3ccnc(-c4cnn(S(=O)(=O)C5CC5)c4)n3)ncc2C#Cc2nc(C(F)(F)F)cs2)CC1 [Example 291, (1-(2-((2-(1-(Cyclopropylsulfonyl)-1H-pyrazol-4-yl)pyrimidin-4-yl)amino)-5-((4-(trifluoromethyl)thiazol-2-yl)ethynyl)pyridin-4-yl)-4-methylpiperidin-4-yl)methanol] | 7.4 nM | 14.9 nM | 22.5 nM | 383 nM | > 10000 nM | 4.5 nM | 3.6 nM | 8.9 nM | 36.7 nM | 615 nM | –
O=S(=O)(C1CC1)n1cc(-c2nccc(Nc3cc(N4CCC(O)CC4)c(C#Cc4csc(CF)n4)cn3)n2)cn1 [Example 212, 1-(2-((2-(1-(Cyclopropylsulfonyl)-1H-pyrazol-4-yl)pyrimidin-4-yl)amino)-5-((2-(fluoromethyl)thiazol-4-yl)ethynyl)pyridin-4-yl)piperidin-4-ol] | 1.5 nM | 8.9 nM | 44.8 nM | 97.6 nM | > 10000 nM | – | – | – | – | – | –
CC1(CO)CCN(c2cc(Nc3ccnc(-c4cnn(S(=O)(=O)C5CC5)c4)n3)ncc2C#Cc2cnn(C3CC3)c2)CC1 [Example 47, (1-(5-((1-Cyclopropyl-1H-pyrazol-4-yl)ethynyl)-2-((2-(1-(cyclopropylsulfonyl)-1H-pyrazol-4-yl)pyrimidin-4-yl)amino)pyridin-4-yl)-4-methylpiperidin-4-yl)methanol] | 2.8 nM | 3.5 nM | 1.6 nM | 7.8 nM | 1740 nM | – | – | – | – | – | IC50 (EGFR Del19/T790M/C797S; [5]): 2.1 nM; IC50 (EGFR L858R/T790M/C797S; [6]): 1.4 nM; IC50 (EGFR Del19/C797S; [7]): 2.6 nM; IC50 (EGFR L858R/C797S; [8]): 3.3 nM; IC50 (EGFR wildtype (WT); [9]): 19.6 nM
O=S(=O)(C1CC1)n1cc(-c2nccc(Nc3cc(N[C@H]4CC[C@@H](O)CC4)c(C#CC4CCOCC4)cn3)n2)cn1 [Example 178, (1s,4s)-4-((2-((2-(1-(Cyclopropylsulfonyl)-1H-pyrazol-4-yl)pyrimidin-4-yl)amino)-5-((tetrahydro-2H-pyran-4-yl)ethynyl)pyridin-4-yl)amino)cyclohexan-1-ol] | 0.3 nM | 0.3 nM | 2.3 nM | 27 nM | 8010 nM | 0.3 nM | 0.2 nM | 1.1 nM | 3 nM | 9.5 nM | –
CC1(CO)CCN(c2cc(Nc3ccnc(-c4cnn(S(=O)(=O)C5CC5)c4)n3)ncc2C#Cc2cnc(CN3CCOCC3)s2)CC1 [Example 192, (1-(2-((2-(1-(Cyclopropylsulfonyl)-1H-pyrazol-4-yl)pyrimidin-4-yl)amino)-5-((2-(morpholinomethyl)thiazol-5-yl)ethynyl)pyridin-4-yl)-4-methylpiperidin-4-yl)methanol] | 1.5 nM | 1.3 nM | 1.8 nM | 4.5 nM | 1480 nM | 1 nM | 0.4 nM | 1.1 nM | 2.1 nM | 6.1 nM | –

The next lines start with results.

IC50 (EGFR Del19/T790M/C797S; [1]) | IC50 (EGFR L858R/T790M/C797S; [2]) | IC50 (EGFR Del19/C797S; [3]) | IC50 (EGFR L858R/C797S; [4]) | IC50 (EGFR wildtype (WT); IC50 WT (nM), 100 μM ATP) | IC50 (EGFR Del19/T790M/C797S; [10]) | IC50 (EGFR L858R/T790M/C797S; [11]) | IC50 (EGFR Del19/C797S; [12]) | IC50 (EGFR L858R/C797S; [13]) | IC50 (EGFR wildtype (WT); [14]) | Compound | other results
9 nM | 31.1 nM | 114 nM | 350 nM | > 10000 nM | – | – | – | – | – | Cn1cc(C#Cc2cnc(Nc3ccnc(-c4cnn(S(=O)(=O)C5CC5)c4)n3)cc2N2CCC(F)(C(F)(F)F)CC2)cn1 [Example 66, 2-(1-(Cyclopropylsulfonyl)-1H-pyrazol-4-yl)-N-(4-(4-fluoro-4-(trifluoromethyl)piperidin-1-yl)-5-((1-methyl-1H-pyrazol-4-yl)ethynyl)pyridin-2-yl)pyrimidin-4-amine] | –
1.8 nM | 3.5 nM | 7 nM | 50.8 nM | > 10000 nM | – | – | – | – | – | O=S(=O)(C1CC1)n1cc(-c2nccc(Nc3cc(NC4CCC(O)CC4)c(C#Cc4cnn(C5CC5(F)F)c4)cn3)n2)cn1 (stereo not drawn) [Example 85, (1s,4s)-4-((2-((2-(1-(Cyclopropylsulfonyl)-1H-pyrazol-4-yl)pyrimidin-4-yl)amino)-5-((1-(2,2-difluorocyclopropyl)-1H-pyrazol-4-yl)ethynyl)pyridin-4-yl)amino)cyclohexan-1-ol] | IC50 (EGFR Del19/T790M/C797S; [5]): 1.8 nM; IC50 (EGFR L858R/T790M/C797S; [6]): 1 nM; IC50 (EGFR Del19/C797S; [7]): 3.5 nM; IC50 (EGFR L858R/C797S; [8]): 3.1 nM; IC50 (EGFR wildtype (WT); [9]): 114 nM
